In ChEMBL document CHEMBL4665648, “Potent and selective inhibitors of receptor-interacting protein kinase 1 that lack an aromatic back pocket group” (Bioorg Med Chem Lett, 2019):

Legend:
[1] = biological target: Tyrosine-protein kinase BTK (Homo sapiens) (UniProt Q06187); test: Inhibition of recombinant human His-tagged full length BTK expressed in baculovirus expression system using Tyr 01 as substrate at 10 uM incubated for 60 mins by Z'-Lyte assay relative to control
[2] = Volume of distribution in Sprague-Dawley rat at 0.5 mg/kg, iv or 2 mg/kg, po; format: ADME, organism-based; settings: in vivo
[3] = biological target: Epithelial discoidin domain-containing receptor 1 (Homo sapiens) (UniProt Q08345); test: Inhibition of tracer 178 binding to recombinant human GST-tagged DDR1 (440 to 876 residues ) expressed in baculovirus expression system at 10 uM incubated for 60 mins by Lanthascreen assay relative to control
[4] = biological target: Activin receptor type-2B (Homo sapiens) (UniProt Q13705); test: Inhibition of tracer 178 binding to recombinant human GST-tagged ACVR2B (185 to 488 residues) expressed in baculovirus expression system at 10 uM incubated for 60 mins by Lanthascreen assay relative to control
[5] = biological target: Casein kinase II subunit alpha (Homo sapiens) (UniProt P68400); test: Inhibition of recombinant human His-tagged full length CK2alpha1 expressed in baculovirus expression system using Ser/Thr 1 as substrate at 10 uM incubated for 60 mins by Z'-Lyte assay relative to control
[6] = biological target: Dual specificity protein kinase CLK3 (Homo sapiens) (UniProt P49761); test: Inhibition of recombinant human GST-tagged full length CLK3 expressed in baculovirus expression system using Ser/Thr 18 as substrate at 10 uM incubated for 60 mins by Z'-Lyte assay relative to control
[7] = biological target: Tyrosine-protein kinase CSK (Homo sapiens) (UniProt P41240); test: Inhibition of recombinant human GST-tagged full length CSK expressed in Escherichia coli expression system using Tyr 02 as substrate at 10 uM incubated for 60 mins by Z'-Lyte assay relative to control
[8] = biological target: Calcium/calmodulin-dependent protein kinase type IV (Homo sapiens) (UniProt Q16566); test: Inhibition of recombinant human GST-tagged full length CAMK4 expressed in Escherichia coli expression system using Ser/Thr 13 as substrate at 10 uM incubated for 60 mins by Z'-Lyte assay relative to control
[9] = biological target: Ephrin type-B receptor 3 (Homo sapiens) (UniProt P54753); test: Inhibition of recombinant human GST-tagged EPHB3 (623 to 907 residues) expressed in baculovirus expression system using Tyr 02 as substrate at 10 uM incubated for 60 mins by Z'-Lyte assay relative to control
[10] = biological target: Focal adhesion kinase 1 (Homo sapiens) (UniProt Q05397); test: Inhibition of recombinant human GST-tagged full length FAK expressed in baculovirus expression system using Tyr 07 as substrate at 10 uM incubated for 60 mins by Z'-Lyte assay relative to control
[11] = biological target: Fibroblast growth factor receptor 1 (Homo sapiens) (UniProt P11362); test: Inhibition of recombinant human His-tagged FGFR1 (308 to 731 residues) expressed in baculovirus expression system using Tyr 01 as substrate at 10 uM incubated for 60 mins by Z'-Lyte assay relative to control
[12] = biological target: Fibroblast growth factor receptor 4 (Homo sapiens) (UniProt P22455); test: Inhibition of recombinant human His-tagged FGFR4 ([…] residues) expressed in baculovirus expression system using Tyr 04 as substrate at 10 uM incubated for 60 mins by Z'-Lyte assay relative to control
[13] = biological target: Glycogen synthase kinase-3 alpha (Homo sapiens) (UniProt P49840); test: Inhibition of recombinant human GST-tagged full length GSK3alpha expressed in baculovirus expression system using Ser/Thr 09 as substrate at 10 uM incubated for 60 mins by Z'-Lyte assay relative to control
[14] = biological target: Muscle, skeletal receptor tyrosine-protein kinase (Homo sapiens) (UniProt O15146); test: Inhibition of recombinant human GST-tagged MUSK (519 to 869 residues) expressed in baculovirus expression system using Tyr 04 as substrate at 10 uM incubated for 60 mins by Z'-lyte assay relative to control
[15] = biological target: Rho-associated protein kinase 2 (Homo sapiens) (UniProt O75116); test: Inhibition of recombinant human N-terminal GST-tagged ROCK2 (1 to 552 residues) expressed in baculovirus expression system using Ser/Thr 13 as substrate at 10 uM incubated for 60 mins by Z'-Lyte assay relative to control
[16] = biological target: Ribosomal protein S6 kinase alpha-1 (Homo sapiens) (UniProt Q15418); test: Inhibition of recombinant human His-tagged full length RSK1 expressed in baculovirus expression system using Ser/Thr 06 as substrate at 10 uM incubated for 60 mins by Z'-Lyte assay relative to control
[17] = biological target: Proto-oncogene tyrosine-protein kinase ROS (Homo sapiens) (UniProt P08922); test: Inhibition of recombinant human GST-tagged full length ROS1 (1883 to 2347 residues) expressed in baculovirus expression system using Tyr 01 as substrate at 10 uM incubated for 60 mins by Z'-Lyte assay relative to control
[18] = biological target: Serine/threonine-protein kinase 33 (Homo sapiens) (UniProt Q9BYT3); test: Inhibition of tracer 236 binding to recombinant human His-tagged full length STK33 expressed in baculovirus expression system at 10 uM incubated for 60 mins by Lanthascreen assay relative to control
[19] = biological target: Proto-oncogene tyrosine-protein kinase Src (Homo sapiens) (UniProt P12931); test: Inhibition of recombinant human C-terminal His-tagged full length SRC expressed in baculovirus expression system using Tyr 02 as substrate at 10 uM incubated for 60 mins by Z'-Lyte assay relative to control
[20] = biological target: Tyrosine-protein kinase Srms (Homo sapiens) (UniProt Q9H3Y6); test: Inhibition of recombinant human GST-tagged full length SRM expressed in baculovirus expression system using Tyr 01 as substrate at 10 uM incubated for 60 mins by Z'-Lyte assay relative to control
[21] = biological target: BDNF/NT-3 growth factors receptor (Homo sapiens) (UniProt Q16620); test: Inhibition of recombinant human His-tagged TRKB (526 to 838 residues) expressed in baculovirus expression system using Tyr 01 as substrate at 10 uM incubated for 60 mins by Z'-Lyte assay relative to control
[22] = biological target: Death-associated protein kinase 3 (Homo sapiens) (UniProt O43293); test: Inhibition of recombinant human GST-tagged full length ZIPK expressed in baculovirus expression system using Ser/Thr 13 as substrate at 10 uM incubated for 60 mins by Z'-Lyte assay relative to control
[23] = biological target: Mitogen-activated protein kinase 14 (Homo sapiens) (UniProt Q16539); test: Inhibition of recombinant human GST-tagged full length p38 alpha expressed in Escherichia coli expression system using Ser/Thr 15 as substrate at 10 uM incubated for 60 mins by Z'-Lyte assay relative to control
[24] = biological target: Ribosomal protein S6 kinase beta-1 (Homo sapiens) (UniProt P23443); test: Inhibition of recombinant human GST-tagged p70S6K (1 to 421 residues) expressed in baculovirus expression system using Ser/Thr 07 as substrate at 10 uM incubated for 60 mins by Z'-Lyte assay relative to control

Chain of Serine/threonine-protein kinase 33 (Homo sapiens) (Q9BYT3 whole entry, looked up): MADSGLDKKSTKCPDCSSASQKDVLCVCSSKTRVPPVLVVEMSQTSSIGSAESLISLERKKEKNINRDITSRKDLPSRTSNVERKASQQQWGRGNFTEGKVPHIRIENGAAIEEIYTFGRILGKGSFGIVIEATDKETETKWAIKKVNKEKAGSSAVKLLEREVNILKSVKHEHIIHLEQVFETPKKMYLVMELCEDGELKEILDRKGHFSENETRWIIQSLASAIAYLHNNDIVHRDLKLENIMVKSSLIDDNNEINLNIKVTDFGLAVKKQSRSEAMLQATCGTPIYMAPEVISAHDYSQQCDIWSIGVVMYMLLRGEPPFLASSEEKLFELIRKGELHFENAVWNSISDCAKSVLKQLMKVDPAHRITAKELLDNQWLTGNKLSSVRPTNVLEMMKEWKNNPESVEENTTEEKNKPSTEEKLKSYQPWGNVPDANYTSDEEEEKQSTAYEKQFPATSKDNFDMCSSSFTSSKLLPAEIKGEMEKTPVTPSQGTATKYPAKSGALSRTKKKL
Chain of Calcium/calmodulin-dependent protein kinase type IV (Homo sapiens) (Q16566 whole entry, the tested form may be a part): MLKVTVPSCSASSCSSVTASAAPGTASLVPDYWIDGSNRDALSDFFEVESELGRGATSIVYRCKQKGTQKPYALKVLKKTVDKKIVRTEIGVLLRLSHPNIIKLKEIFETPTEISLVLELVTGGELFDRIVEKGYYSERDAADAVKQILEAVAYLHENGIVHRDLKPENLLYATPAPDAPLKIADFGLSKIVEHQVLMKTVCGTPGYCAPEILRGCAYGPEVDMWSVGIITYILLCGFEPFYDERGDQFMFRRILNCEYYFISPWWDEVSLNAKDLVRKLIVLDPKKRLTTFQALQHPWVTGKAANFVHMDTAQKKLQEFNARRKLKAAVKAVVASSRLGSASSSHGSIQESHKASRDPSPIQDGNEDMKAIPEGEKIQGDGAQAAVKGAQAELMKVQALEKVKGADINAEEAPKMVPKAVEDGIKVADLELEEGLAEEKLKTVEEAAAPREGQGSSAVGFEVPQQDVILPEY
Chain of Activin receptor type-2B (Homo sapiens) (Q13705 whole entry, the tested form may be a part): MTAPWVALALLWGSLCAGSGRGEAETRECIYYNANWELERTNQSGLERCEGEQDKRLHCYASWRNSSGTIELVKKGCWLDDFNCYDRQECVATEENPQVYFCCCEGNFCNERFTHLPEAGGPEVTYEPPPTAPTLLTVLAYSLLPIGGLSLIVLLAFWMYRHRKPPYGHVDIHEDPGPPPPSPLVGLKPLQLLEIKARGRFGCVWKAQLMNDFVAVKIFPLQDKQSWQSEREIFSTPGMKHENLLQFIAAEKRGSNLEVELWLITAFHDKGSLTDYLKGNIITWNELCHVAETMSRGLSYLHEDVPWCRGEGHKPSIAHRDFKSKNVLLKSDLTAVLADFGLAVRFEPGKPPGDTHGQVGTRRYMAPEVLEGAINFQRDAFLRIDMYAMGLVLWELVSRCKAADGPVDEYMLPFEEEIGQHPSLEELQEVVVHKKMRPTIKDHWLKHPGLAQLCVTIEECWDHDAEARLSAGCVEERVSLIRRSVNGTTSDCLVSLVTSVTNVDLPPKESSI
Chain of Muscle, skeletal receptor tyrosine-protein kinase (Homo sapiens) (O15146 whole entry, the tested form may be a part): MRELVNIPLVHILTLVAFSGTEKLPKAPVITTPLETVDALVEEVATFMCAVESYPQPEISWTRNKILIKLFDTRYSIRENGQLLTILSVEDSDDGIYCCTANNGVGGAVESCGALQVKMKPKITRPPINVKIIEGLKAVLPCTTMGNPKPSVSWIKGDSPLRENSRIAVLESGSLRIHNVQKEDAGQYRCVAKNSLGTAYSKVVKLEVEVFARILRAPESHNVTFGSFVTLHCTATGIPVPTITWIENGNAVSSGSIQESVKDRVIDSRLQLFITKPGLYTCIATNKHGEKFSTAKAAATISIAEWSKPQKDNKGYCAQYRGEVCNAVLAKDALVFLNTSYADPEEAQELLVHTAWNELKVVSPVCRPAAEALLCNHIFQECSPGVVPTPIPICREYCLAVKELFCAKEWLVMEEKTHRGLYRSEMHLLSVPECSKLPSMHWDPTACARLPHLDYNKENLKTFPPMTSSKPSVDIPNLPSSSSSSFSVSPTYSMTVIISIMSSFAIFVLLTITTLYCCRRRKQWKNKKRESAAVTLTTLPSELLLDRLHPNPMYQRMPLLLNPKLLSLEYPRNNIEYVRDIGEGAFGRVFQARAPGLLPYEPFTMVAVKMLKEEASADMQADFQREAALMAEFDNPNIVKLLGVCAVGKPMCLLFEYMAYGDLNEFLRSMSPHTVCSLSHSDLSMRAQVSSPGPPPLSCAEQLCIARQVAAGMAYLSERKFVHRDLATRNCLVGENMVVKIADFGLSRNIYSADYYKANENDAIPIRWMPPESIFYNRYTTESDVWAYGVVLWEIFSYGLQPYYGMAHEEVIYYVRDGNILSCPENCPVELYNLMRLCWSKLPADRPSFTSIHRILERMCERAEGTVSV
Chain of Fibroblast growth factor receptor 1 (Homo sapiens) (P11362 22-822 limits assumed): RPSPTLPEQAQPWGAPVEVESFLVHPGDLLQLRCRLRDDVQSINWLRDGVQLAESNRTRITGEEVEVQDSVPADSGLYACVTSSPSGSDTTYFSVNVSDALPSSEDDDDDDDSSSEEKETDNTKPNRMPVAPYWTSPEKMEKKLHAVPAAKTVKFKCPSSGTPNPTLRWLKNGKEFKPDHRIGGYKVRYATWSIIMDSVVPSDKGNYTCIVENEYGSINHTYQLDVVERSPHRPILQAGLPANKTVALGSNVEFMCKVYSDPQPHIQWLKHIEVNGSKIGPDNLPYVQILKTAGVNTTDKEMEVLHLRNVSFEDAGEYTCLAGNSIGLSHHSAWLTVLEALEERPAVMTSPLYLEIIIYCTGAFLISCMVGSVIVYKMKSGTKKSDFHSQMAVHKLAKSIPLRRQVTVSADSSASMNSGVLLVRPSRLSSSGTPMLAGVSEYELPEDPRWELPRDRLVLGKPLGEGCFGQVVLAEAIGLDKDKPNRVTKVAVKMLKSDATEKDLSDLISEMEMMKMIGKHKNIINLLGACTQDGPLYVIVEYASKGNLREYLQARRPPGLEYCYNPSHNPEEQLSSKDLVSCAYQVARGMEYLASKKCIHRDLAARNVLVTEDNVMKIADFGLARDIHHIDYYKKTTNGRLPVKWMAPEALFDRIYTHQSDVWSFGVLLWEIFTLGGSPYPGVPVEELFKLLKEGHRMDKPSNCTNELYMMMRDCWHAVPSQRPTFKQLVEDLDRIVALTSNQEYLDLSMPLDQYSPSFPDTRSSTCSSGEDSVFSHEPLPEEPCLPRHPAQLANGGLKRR
Chain of BDNF/NT-3 growth factors receptor (Homo sapiens) (Q16620 32-822 limits assumed): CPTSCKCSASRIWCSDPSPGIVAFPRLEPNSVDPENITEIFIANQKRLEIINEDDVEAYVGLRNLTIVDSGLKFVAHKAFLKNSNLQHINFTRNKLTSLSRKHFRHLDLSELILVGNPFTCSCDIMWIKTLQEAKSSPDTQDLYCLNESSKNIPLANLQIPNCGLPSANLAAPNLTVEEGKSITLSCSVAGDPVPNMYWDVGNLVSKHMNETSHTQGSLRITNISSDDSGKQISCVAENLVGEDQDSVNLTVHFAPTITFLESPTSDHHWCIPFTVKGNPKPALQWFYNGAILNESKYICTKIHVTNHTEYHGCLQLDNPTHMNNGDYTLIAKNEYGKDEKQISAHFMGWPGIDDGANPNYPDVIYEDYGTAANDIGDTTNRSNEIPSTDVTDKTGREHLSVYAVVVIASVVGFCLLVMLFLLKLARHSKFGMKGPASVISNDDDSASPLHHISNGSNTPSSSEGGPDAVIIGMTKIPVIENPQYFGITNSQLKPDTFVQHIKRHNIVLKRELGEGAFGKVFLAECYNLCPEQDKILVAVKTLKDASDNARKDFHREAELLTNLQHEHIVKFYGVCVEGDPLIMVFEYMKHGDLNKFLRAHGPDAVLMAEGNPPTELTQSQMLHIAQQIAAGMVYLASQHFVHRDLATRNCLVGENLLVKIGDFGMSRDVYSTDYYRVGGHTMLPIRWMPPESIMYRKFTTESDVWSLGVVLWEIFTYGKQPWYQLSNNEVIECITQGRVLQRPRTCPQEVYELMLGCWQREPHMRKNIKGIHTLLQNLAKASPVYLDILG
Chain of Death-associated protein kinase 3 (Homo sapiens) (O43293 whole entry, looked up): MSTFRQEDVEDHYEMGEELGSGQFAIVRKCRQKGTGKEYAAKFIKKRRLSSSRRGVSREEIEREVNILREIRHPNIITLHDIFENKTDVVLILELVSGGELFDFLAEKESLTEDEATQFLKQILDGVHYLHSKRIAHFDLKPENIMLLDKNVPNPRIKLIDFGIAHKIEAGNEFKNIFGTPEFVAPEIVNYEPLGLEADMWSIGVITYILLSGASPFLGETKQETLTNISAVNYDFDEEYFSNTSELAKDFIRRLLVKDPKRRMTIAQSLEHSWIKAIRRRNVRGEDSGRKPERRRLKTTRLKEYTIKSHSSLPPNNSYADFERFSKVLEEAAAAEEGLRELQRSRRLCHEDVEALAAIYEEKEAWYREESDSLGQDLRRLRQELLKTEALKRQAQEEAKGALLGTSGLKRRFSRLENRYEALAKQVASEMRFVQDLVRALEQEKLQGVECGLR
Chain of Tyrosine-protein kinase CSK (Homo sapiens) (P41240 2-450 limits assumed): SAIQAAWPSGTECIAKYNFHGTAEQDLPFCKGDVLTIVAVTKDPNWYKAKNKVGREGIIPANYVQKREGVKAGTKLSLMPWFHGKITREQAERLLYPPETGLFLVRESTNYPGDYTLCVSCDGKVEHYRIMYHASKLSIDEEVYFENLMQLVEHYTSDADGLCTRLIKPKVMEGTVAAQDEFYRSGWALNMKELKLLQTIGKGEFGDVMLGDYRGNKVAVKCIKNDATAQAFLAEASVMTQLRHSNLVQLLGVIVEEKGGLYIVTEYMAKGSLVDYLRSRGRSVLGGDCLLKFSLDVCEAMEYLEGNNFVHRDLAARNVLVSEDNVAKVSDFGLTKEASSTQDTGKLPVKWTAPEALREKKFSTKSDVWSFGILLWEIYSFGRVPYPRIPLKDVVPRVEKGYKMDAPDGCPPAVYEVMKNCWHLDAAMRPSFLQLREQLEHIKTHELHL

CN1C(=O)[C@@H](NC(=O)c2n[nH]c3ncc(C(F)(F)C(F)(F)F)cc23)COc2ccccc21
inhibition [1]: -2% | Vd [2]: 2.8 L/kg | inhibition [3]: 7% | inhibition [4]: -0.5% | inhibition [5]: 4.5% | inhibition [6]: 4.5% | inhibition [7]: 2.5% | inhibition [8]: -2% | inhibition [9]: 1% | inhibition [10]: 0.5% | inhibition [11]: 0% | inhibition [12]: -7% | inhibition [13]: 9% | inhibition [14]: 17% | inhibition [15]: -3% | inhibition [16]: 8% | inhibition [17]: -4% | inhibition [18]: 1% | inhibition [19]: 2% | inhibition [20]: 2.5% | inhibition [21]: 0.5% | inhibition [22]: 7% | inhibition [23]: 0.5% | inhibition [24]: 6.5%
